Each structure is given as a SMILES string. Several values for one entry are separate records, joined by “and”; a condition that tells them apart may be missing. Equal entries are not always repeated.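 Assay format: 96-well plates, 48-hour exposure. GI50 is the concentration that inhibits growth by half. TGI marks complete inhibition of growth.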

Test systems include UO-31 renal; RXF 393 renal; U251 CNS; NCI-H226 lung; MDA-MB-231 breast; NCI-H460 lung; ACHN renal; LOX IMVI melanoma.
Assay in all cases: DTP human tumour cell line panel, 48 h

Consider `C[C@@H](NC(=O)c1ncnc(N)c1Cl)c1ncc(C(=O)Nc2cc(C(F)(F)F)c(Cl)cn2)s1`, for which the GI50 with UO-31 renal was 8.98 µM; with RXF 393 renal, 24.2 µM; with U251 CNS it was 19.5 µM; with NCI-H226 lung, 15.4 µM; in the test with MDA-MB-231 breast, 5.37 µM; in the test with NCI-H460 lung, 20.4 µM. Besides, the GI50 in the test on ACHN renal was 15.7 µM; with LOX IMVI melanoma, 3.32 µM. Moreover, the total growth inhibition concentration (TGI) was 44.4 µM in the test on UO-31 renal; 68.7 µM in the test on RXF 393 renal; above 68.5 µM in the test on U251 CNS; 74.3 µM in the test on NCI-H226 lung; 41.5 µM with MDA-MB-231 breast; 79.9 µM with NCI-H460 lung. Also, the TGI with ACHN renal is above 100 µM; in the test on LOX IMVI melanoma it was 54 µM.
As to `C/C(=N/O)c1ccc2c(c1)/C(=N/O)c1ccccc1-2`, the GI50 is 18.7 µM in the test with UO-31 renal; 21.3 µM with RXF 393 renal; 21.2 µM in the test on U251 CNS; 22.2 µM in the test with NCI-H226 lung; 23 µM with MDA-MB-231 breast; 21.1 µM with NCI-H460 lung. The GI50 is 20.6 µM with ACHN renal and 16.3 µM in the test with LOX IMVI melanoma. The TGI with UO-31 renal is 38.2 µM; with RXF 393 renal it was 44.8 µM; in the test with U251 CNS, 46 µM; with NCI-H226 lung it was 49.7 µM; in the test with MDA-MB-231 breast it was 56.5 µM; in the test on NCI-H460 lung it was 46.4 µM. Further, the total growth inhibition concentration (TGI) was found to be 46.1 µM in the test on ACHN renal and 33.3 µM in the test on LOX IMVI melanoma.
As to `O=C1c2ccccc2C(=O)c2c1ccc1c(=O)n(-c3ccccc3C(F)(F)F)nnc21`, the GI50 in the test on UO-31 renal is 1.68 µM; with RXF 393 renal it was 2.15 µM; in the test on U251 CNS, 2.66 µM; in the test with NCI-H226 lung, 2.38 µM; in the test with MDA-MB-231 breast, 2.07 µM; in the test with NCI-H460 lung, 1.97 µM. Besides, the GI50 with ACHN renal is 2.7 µM; in the test on LOX IMVI melanoma, 1.59 µM. Also, the concentration for total growth inhibition (TGI) was above 100 µM with UO-31 renal; 4.87 µM in the test with RXF 393 renal; 17.9 µM with U251 CNS; 5.87 µM in the test with NCI-H226 lung; 7.04 µM in the test on MDA-MB-231 breast; 5.07 µM in the test with NCI-H460 lung. Besides, the figures for the total growth inhibition concentration (TGI) in the test on ACHN renal and in the test with LOX IMVI melanoma were above 100 µM and 4.2 µM, respectively.
For the compound `O=C(/C=C/C(Cl)(Cl)Cl)Nc1ccc(Cl)cc1`, the concentration for total growth inhibition (TGI) is 1.91 µM in the test on UO-31 renal; 6.62 µM in the test with RXF 393 renal; 26.2 µM with U251 CNS; 36.6 µM in the test on NCI-H226 lung; 6.15 µM in the test on MDA-MB-231 breast; 40 µM in the test with NCI-H460 lung. Besides, the figures for the TGI in the test on ACHN renal and in the test with LOX IMVI melanoma were 6.37 µM and 2.2 µM, respectively.
In the case of `CN(C)C=NC1CCC(C(C)(C)C)CC1` (stereo not given), the TGI with UO-31 renal was found to be 30.8 µM; in the test with RXF 393 renal, 45.6 µM; in the test on U251 CNS, 31.2 µM; in the test on NCI-H226 lung, 41.3 µM; in the test on MDA-MB-231 breast, 26.7 µM; in the test with NCI-H460 lung, 35.1 µM. The TGI in the test with ACHN renal came out at 43.8 µM; in the test on LOX IMVI melanoma it was 29.7 µM.
With `CN(C)Cc1ccc(C(C)(C)C)cc1-c1cc(C(C)(C)C)ccc1CN(C)C`, the TGI in the test with UO-31 renal, with RXF 393 renal, with U251 CNS, in the test with NCI-H226 lung, with MDA-MB-231 breast and in the test with NCI-H460 lung was above 100 µM each time. The TGI in the test with ACHN renal and in the test with LOX IMVI melanoma was above 100 µM each time.
Regarding `CC(C)(C)NC(=O)[C@H]1CC[C@H]2[C@@H]3CC[C@H]4NC(=O)C=C[C@]4(C)[C@H]3CC[C@]12C`, the GI50 is 71.1 µM and > 100 µM in the test with UO-31 renal; above 100 µM with RXF 393 renal; above 100 µM in the test with U251 CNS; above 100 µM in the test on NCI-H226 lung; above 100 µM in the test with MDA-MB-231 breast; above 100 µM in the test on NCI-H460 lung. The GI50 with ACHN renal and in the test on LOX IMVI melanoma was above 100 µM in each case. Besides, the TGI with UO-31 renal, in the test with RXF 393 renal, in the test with U251 CNS, in the test on NCI-H226 lung, in the test on MDA-MB-231 breast and with NCI-H460 lung was above 100 µM throughout. Besides, the TGI in the test with ACHN renal and in the test with LOX IMVI melanoma was above 100 µM throughout.
On to `NC(=O)CC1(O)C=C(Br)C(=O)C(Br)=C1`, for which the GI50 is 2.17 µM with UO-31 renal; 1.9 µM in the test on RXF 393 renal; 10.6 µM in the test with U251 CNS; 20.5 µM with NCI-H226 lung; 6.85 µM with MDA-MB-231 breast; 18.5 µM in the test with NCI-H460 lung. Also, the GI50 in the test on ACHN renal is 3.44 µM; with LOX IMVI melanoma it was 3.65 µM. The TGI is 11.2 µM in the test with UO-31 renal; 4.05 µM in the test on RXF 393 renal; 24.1 µM in the test on U251 CNS; 46.3 µM in the test with NCI-H226 lung; 20.2 µM in the test with MDA-MB-231 breast; 37 µM in the test with NCI-H460 lung. For the same compound, the concentration for total growth inhibition (TGI) in the test on ACHN renal is 12.3 µM; in the test on LOX IMVI melanoma, 13 µM.
For the compound `ClCc1ccc(Cn2cnc3c(Cl)ncnc32)cc1`, the TGI was above 21.5 µM with UO-31 renal; 30.4 µM with RXF 393 renal; 15.1 µM in the test with U251 CNS; 28.6 µM in the test on NCI-H226 lung; 20.8 µM with MDA-MB-231 breast; 15.6 µM in the test with NCI-H460 lung. For the same compound, the TGI with ACHN renal was 11.5 µM; in the test on LOX IMVI melanoma, 20.4 µM. For the same compound, the GI50 was 13 µM in the test with RXF 393 renal; 6.4 µM in the test on U251 CNS; 12.7 µM with NCI-H226 lung; 10.4 µM with MDA-MB-231 breast; 1.34 µM in the test with NCI-H460 lung; 4.04 µM with ACHN renal. Besides, in the test on LOX IMVI melanoma, the GI50 was 5.8 µM.
Regarding `CCOc1ccc2c(c1)CN(Cc1ccc(Cl)cc1)CO2`, the GI50 in the test with UO-31 renal is 8.82 µM; with RXF 393 renal, 13.8 µM; in the test with U251 CNS it was 16.1 µM; in the test on NCI-H226 lung, 30.3 µM; with MDA-MB-231 breast, 12.9 µM; in the test with NCI-H460 lung, 16 µM. In addition, the GI50 with ACHN renal was 19.3 µM; with LOX IMVI melanoma, 17.2 µM. Moreover, the TGI is 43.8 µM in the test on UO-31 renal; 29.3 µM in the test with RXF 393 renal; 33.2 µM with U251 CNS; above 100 µM with NCI-H226 lung; 34.6 µM with MDA-MB-231 breast; 32.4 µM in the test with NCI-H460 lung. The TGI with ACHN renal stood at 55 µM; in the test with LOX IMVI melanoma it was 33.4 µM.

By GI50 is commonly meant the concentration at which growth is held to half of that of the control. Broadly, the TGI is the concentration giving total growth inhibition. A higher TGI goes with less potent growth arrest.

(Values after PubChem BioAssay (NCI).)
